The supplement of paper PMC11061612

What was measured:
Assay in all cases: combination Emax (second highest fraction inhibited in the dose matrix, 72 h); higher = more inhibition; extreme values may be limits of the assay
A673 (Ewing's Sarcoma) = system: A673 (Ewing's Sarcoma)
Outline: (§1)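 Bliss excess equals the observed combination effect minus the expected value EA + EB − EA·EB, where EA and EB are the effects of each agent alone. Combination Emax is the second-highest inhibition within the matrix. Inhibition was scaled from CellTiter-Glo 2.0 luminescence, with 0 set by vehicle wells and 1 by blank wells, after 72 hours of two-drug dosing of cells plated in 1536-well plates.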

EW-11 (Ewing's Sarcoma) = system: EW-11 (Ewing's Sarcoma)
Outline: as §1

[1] = system: HH (T-Cell Non-Hodgkin's Lymphoma)
Outline: as §1

[2] = system: NCI-H524 (Small Cell Lung Carcinoma)
Outline: as §1

[3] = system: SAS (Oral Cavity Carcinoma)
Outline: as §1

[4] = system: SNU-449 (Hepatocellular Carcinoma)
Outline: as §1

[5] = system: TGBC1TKB (Biliary Tract Carcinoma)
Outline: as §1

[6] = system: WSU-NHL (B-Cell Non-Hodgkin's Lymphoma)
Outline: as §1

[7] = system: YAPC (Pancreatic Carcinoma)
Outline: as §1

## C=CCn1c(=O)c2cnc(Nc3ccc(N4CCN(C)CC4)cc3)nc2n1-c1cccc(C(C)(C)O)n1 [AZD1775] + CCc1c2c(nc3ccc(O)cc13)-c1cc3c(c(=O)n1C2)COC(=O)[C@]3(O)CC [SN-38] (first compound max 1 µM, partner max 0.3 µM)
A673 (Ewing's Sarcoma)
  combination Emax: 0.973
EW-11 (Ewing's Sarcoma)
  combination Emax: 0.723
[1]
  combination Emax: 0.567
[2]
  combination Emax: 0.76
[3]
  combination Emax: 1
[4]
  combination Emax: 0.61
[5]
  combination Emax: 0.426
[6]
  combination Emax: 0.999
[7]
  combination Emax: 0.722

## C=CCn1c(=O)c2cnc(Nc3ccc(N4CCN(C)CC4)cc3)nc2n1-c1cccc(C(C)(C)O)n1 [AZD1775] + Nc1ccn([C@@H]2O[C@H](CO)[C@@H](O)C2(F)F)c(=O)n1 [Gemcitabine] (first compound max 1 µM, partner max 0.3 µM)
A673 (Ewing's Sarcoma)
  combination Emax: 0.937
EW-11 (Ewing's Sarcoma)
  combination Emax: 0.758
[1]
  combination Emax: 0.574
[2]
  combination Emax: 0.951
[3]
  combination Emax: 0.996
[4]
  combination Emax: 0.426
[5]
  combination Emax: 0.454
[6]
  combination Emax: 0.987
[7]
  combination Emax: 0.643

## CN(CCO)CC[C@H](CSc1ccccc1)Nc1ccc(S(=O)(=O)NC(=O)c2ccc(N3CCC([C@@H](O)c4ccccc4-c4ccc(Cl)cc4)CC3)cc2)cc1S(=O)(=O)C(F)(F)F [AZD4320] + CS(=O)(=O)CCNCc1ccc(-c2ccc3ncnc(Nc4ccc(OCc5cccc(F)c5)c(Cl)c4)c3c2)o1 [Lapatinib] (first compound max 1 µM, 7x7, partner max 10 µM)
A673 (Ewing's Sarcoma)
  combination Emax: 0.973
EW-11 (Ewing's Sarcoma)
  combination Emax: 0.95
[1]
  combination Emax: 0.316
[2]
  combination Emax: 0.968
[3]
  combination Emax: 0.525
[4]
  combination Emax: 0.694
[5]
  combination Emax: 0.58
[6]
  combination Emax: 0.945
[7]
  combination Emax: 0.257

## Cc1c2c(nn1C)CSCc1cc(n(C)n1)CSc1cc(c3ccccc3c1)OCCCc1c(C(=O)O)n(C)c3c-2c(Cl)ccc13 [AZD5991] + CC(=O)O[C@H]1C(=O)[C@@]2(C)[C@H]([C@H](OC(=O)c3ccccc3)[C@]3(O)C[C@H](OC(=O)[C@H](O)[C@@H](NC(=O)c4ccccc4)c4ccccc4)C(C)=C1C3(C)C)[C@]1(OC(C)=O)CO[C@@H]1C[C@@H]2O [Paclitaxel] (first compound max 1 µM, 7x7, partner max 3 µM)
A673 (Ewing's Sarcoma)
  combination Emax: 0.95
EW-11 (Ewing's Sarcoma)
  combination Emax: 0.895
[1]
  combination Emax: 0.87
[2]
  combination Emax: 0.929
[3]
  combination Emax: 0.66
[4]
  combination Emax: 0.325
[5]
  combination Emax: 0.412
[6]
  combination Emax: 0.998
[7]
  combination Emax: 0.315

## Cc1c2c(nn1C)CSCc1cc(n(C)n1)CSc1cc(c3ccccc3c1)OCCCc1c(C(=O)O)n(C)c3c-2c(Cl)ccc13 [AZD5991] + Nc1ccn([C@@H]2O[C@H](CO)[C@@H](O)C2(F)F)c(=O)n1 [Gemcitabine] (first compound max 1 µM, 7x7, partner max 0.3 µM)
A673 (Ewing's Sarcoma)
  combination Emax: 0.893
EW-11 (Ewing's Sarcoma)
  combination Emax: 0.868
[1]
  combination Emax: 0.879
[2]
  combination Emax: 0.788
[3]
  combination Emax: 0.924
[4]
  combination Emax: 0.316
[5]
  combination Emax: 0.255
[6]
  combination Emax: 0.967
[7]
  combination Emax: 0.575

## C[C@@H]1COCCN1c1cc(C2([S@](C)(=N)=O)CC2)nc(-c2ccnc3[nH]ccc23)n1 [AZD6738] + C1CC(C1)(C(=O)[O-])C(=O)[O-].N.N.[Pt+2] [Carboplatin] (first compound max 10 µM, 7x7, partner max 10 µM)
A673 (Ewing's Sarcoma)
  combination Emax: 0.781
EW-11 (Ewing's Sarcoma)
  combination Emax: 0.584
[1]
  combination Emax: 0.22
[2]
  combination Emax: 0.687
[3]
  combination Emax: 0.759
[4]
  combination Emax: 0.227
[5]
  combination Emax: 0.302
[6]
  combination Emax: 0.849
[7]
  combination Emax: 0.369

## C[C@@H]1COCCN1c1cc(C2([S@](C)(=N)=O)CC2)nc(-c2ccnc3[nH]ccc23)n1 [AZD6738] + Nc1ccn([C@@H]2O[C@H](CO)[C@@H](O)C2(F)F)c(=O)n1 [Gemcitabine] (first compound max 10 µM, 7x7, partner max 0.3 µM)
EW-11 (Ewing's Sarcoma)
  combination Emax: 0.833
[1]
  combination Emax: 0.716
[2]
  combination Emax: 0.994
[3]
  combination Emax: 0.991
[4]
  combination Emax: 0.557
[5]
  combination Emax: 0.583
[6]
  combination Emax: 0.993
[7]
  combination Emax: 0.725

## C[C@@H](Nc1cc(F)cc(F)c1)c1cc(C(=O)N(C)C)cc2c(=O)cc(N3CCOCC3)oc12 [AZD8186] + CC(=O)c1c(C)c2cnc(Nc3ccc(N4CCNCC4)cn3)nc2n(C2CCCC2)c1=O [Palbociclib] (first compound max 10 µM, 7x7, partner max 10 µM)
A673 (Ewing's Sarcoma)
  combination Emax: 0.479
EW-11 (Ewing's Sarcoma)
  combination Emax: 0.428
[1]
  combination Emax: 0.413
[2]
  combination Emax: 0.571
[3]
  combination Emax: 0.609
[4]
  combination Emax: 0.391
[5]
  combination Emax: 0.534
[6]
  combination Emax: 0.967
[7]
  combination Emax: 0.349

## C[C@@H](Oc1cc(-c2cnn(C3CCNCC3)c2)cnc1N)c1c(Cl)ccc(F)c1Cl [Crizotinib] + CC1=C(C(=CC=C1)Cl)NC(=O)C2=CN=C(S2)NC3=CC(=NC(=N3)C)N4CCN(CC4)CCO [Dasatinib] (first compound max 10 µM, 7x7, partner max 2 µM)
A673 (Ewing's Sarcoma)
  combination Emax: 0.681
EW-11 (Ewing's Sarcoma)
  combination Emax: 0.788
[1]
  combination Emax: 0.203
[2]
  combination Emax: 0.977
[3]
  combination Emax: 0.779
[4]
  combination Emax: 0.831
[5]
  combination Emax: 0.707
[6]
  combination Emax: 0.994
[7]
  combination Emax: 0.694

## C[C@@H](Oc1cc(-c2cnn(C3CCNCC3)c2)cnc1N)c1c(Cl)ccc(F)c1Cl [Crizotinib] + Cn1cnc2c(F)c(Nc3ccc(Br)cc3Cl)c(C(=O)NOCCO)cc21 [Selumetinib] (first compound max 10 µM, 7x7, partner max 10 µM)
A673 (Ewing's Sarcoma)
  combination Emax: 0.742
EW-11 (Ewing's Sarcoma)
  combination Emax: 0.81
[1]
  combination Emax: 0.0931
[2]
  combination Emax: 0.983
[3]
  combination Emax: 0.781
[4]
  combination Emax: 0.455
[5]
  combination Emax: 0.147
[6]
  combination Emax: 0.98
[7]
  combination Emax: 0.526

## CS(=O)(=O)CCNCc1ccc(-c2ccc3ncnc(Nc4ccc(OCc5cccc(F)c5)c(Cl)c4)c3c2)o1 [Lapatinib] + Cn1cnc2c(F)c(Nc3ccc(Br)cc3Cl)c(C(=O)NOCCO)cc21 [Selumetinib] (first compound max 10 µM, 7x7, partner max 10 µM)
A673 (Ewing's Sarcoma)
  combination Emax: 0.343
EW-11 (Ewing's Sarcoma)
  combination Emax: 0.195
[1]
  combination Emax: 0.211
[2]
  combination Emax: 0.305
[3]
  combination Emax: 0.677
[4]
  combination Emax: 0.514
[5]
  combination Emax: 0.288
[6]
  combination Emax: 0.788
[7]
  combination Emax: 0.386

## CS(=O)(=O)CCNCc1ccc(-c2ccc3ncnc(Nc4ccc(OCc5cccc(F)c5)c(Cl)c4)c3c2)o1 [Lapatinib] + NC1(c2ccc(-c3nc4ccn5c(=O)[nH]nc5c4cc3-c3ccccc3)cc2)CCC1 [MK-2206] (first compound max 10 µM, 7x7, partner max 10 µM)
A673 (Ewing's Sarcoma)
  combination Emax: 0.363
EW-11 (Ewing's Sarcoma)
  combination Emax: 0.948
[1]
  combination Emax: 0.451
[2]
  combination Emax: 0.941
[3]
  combination Emax: 0.641
[4]
  combination Emax: 0.82
[5]
  combination Emax: 0.623
[6]
  combination Emax: 0.969
[7]
  combination Emax: 0.356

## O=C(c1cc(Cc2n[nH]c(=O)c3ccccc23)ccc1F)N1CCN(C(=O)C2CC2)CC1 [Olaparib] + CC1(C)CCC(CN2CCN(c3ccc(C(=O)NS(=O)(=O)c4ccc(NCC5CCOCC5)c([N+](=O)[O-])c4)c(Oc4cnc5[nH]ccc5c4)c3)CC2)=C(c2ccc(Cl)cc2)C1 [Venetoclax] (first compound max 10 µM, 7x7, partner max 1 µM)
A673 (Ewing's Sarcoma)
  combination Emax: 0.501
EW-11 (Ewing's Sarcoma)
  combination Emax: 0.698
[1]
  combination Emax: 0.165
[2]
  combination Emax: 0.206
[3]
  combination Emax: 0.176
[4]
  combination Emax: 0.0891
[5]
  combination Emax: 0.108
[6]
  combination Emax: 0.575
[7]
  combination Emax: 0.081

## O=C(c1cc(Cc2n[nH]c(=O)c3ccccc23)ccc1F)N1CCN(C(=O)C2CC2)CC1 [Olaparib] + CN(CC[C@H](CSC1=CC=CC=C1)NC2=C(C=C(C=C2)S(=O)(=O)NC(=O)C3=CC=C(C=C3)N4CCC(CC4)[C@H](C5=CC=CC=C5C6=CC=C(C=C6)Cl)O)S(=O)(=O)C(F)(F)F)CCO [AZD4320] (first compound max 10 µM, 7x7, partner max 1 µM)
A673 (Ewing's Sarcoma)
  combination Emax: 0.948
EW-11 (Ewing's Sarcoma)
  combination Emax: 0.923
[1]
  combination Emax: 0.21
[2]
  combination Emax: 0.755
[3]
  combination Emax: 0.205
[4]
  combination Emax: 0.11
[5]
  combination Emax: 0.366
[6]
  combination Emax: 0.674
[7]
  combination Emax: 0.11

## O=C(c1cc(Cc2n[nH]c(=O)c3ccccc23)ccc1F)N1CCN(C(=O)C2CC2)CC1 [Olaparib] + COc1nnc2ccc(N3CCC(c4ccc(OCCN5CCN(C)C(=O)[C@H]5C)cc4)CC3)nn12 [AZD5153] (first compound max 10 µM, 7x7, partner max 1 µM)
A673 (Ewing's Sarcoma)
  combination Emax: 0.578
EW-11 (Ewing's Sarcoma)
  combination Emax: 0.712
[1]
  combination Emax: 0.382
[2]
  combination Emax: 0.542
[3]
  combination Emax: 0.742
[4]
  combination Emax: 0.208
[5]
  combination Emax: 0.24
[6]
  combination Emax: 0.929
[7]
  combination Emax: 0.267

## Cc1nc(-c2cn3c(n2)-c2ccc(-c4cnn(C(C)(C)C(N)=O)c4)cc2OCC3)n(C(C)C)n1 [Taselisib] + O=C(Nc1ccc2[nH]nc(-c3ccncc3)c2c1)[C@@H]1CCN(CC(=O)N2CCN(c3ccc(-c4ncccn4)cc3)CC2)C1 [SCH772984] (first compound max 10 µM, 7x7, partner max 5 µM)
A673 (Ewing's Sarcoma)
  combination Emax: 0.705
EW-11 (Ewing's Sarcoma)
  combination Emax: 0.746
[1]
  combination Emax: 0.393
[2]
  combination Emax: 0.411
[3]
  combination Emax: 0.945
[4]
  combination Emax: 0.445
[5]
  combination Emax: 0.663
[6]
  combination Emax: 0.97
[7]
  combination Emax: 0.701
